This is an account of results in paper PMC8766838, “Discovery of Small Molecule NSC290956 as a Therapeutic Agent for KRas Mutant Non-Small-Cell Lung Cancer” (Frontiers in Pharmacology, 2022).

In general, Kd refers to a measure of binding affinity in units of concentration. Low values mean tighter binding, high ones weaker binding.

One assay has as its target T1, KRas (Homo sapiens, UniProt P01116, G12S).
T1 construct: endogenous, A549 cells
Description: CETSA in A549 cells ([…]°C stabilization at […]). It is filed as cell-based.

In a further assay the target is T2, HRasG60A (Homo sapiens, UniProt P01112, G60A).
T2 construct: gene HRAS
Kind of assay: SPR (steady-state); circular dichroism in support. It is filed as binding. On the technique in general: Circular dichroism is the unequal absorption of left and right circularly polarised light.

T2 sequence (P01112 1-166 G60A): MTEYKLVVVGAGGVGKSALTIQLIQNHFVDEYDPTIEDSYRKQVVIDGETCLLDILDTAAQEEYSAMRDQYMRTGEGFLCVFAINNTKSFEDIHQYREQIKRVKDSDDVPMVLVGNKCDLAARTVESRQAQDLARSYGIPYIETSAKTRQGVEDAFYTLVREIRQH

Consider `O=C1CSC2(CCN(CCCN3c4ccccc4Sc4ccc(Cl)cc43)CC2)N1` [NSC290956, 1-Thia-4,8-diazaspiro[4.5]decan-3-one,8-[3-(2-chloro-10H-phenothiazin-10-yl)propyl]], for which the “CETSA in A549 cells (4-6°C stabilization at 25 μM)” value on KRas is “target engagement of NSC290956 in KRas-addicted H358 (KRasG12C) and A549 (KRasG12S) cell lines”. At HRasG60A, the Kd came to 21.3 µM.
